Here are results for 2 molecules from US8741955B2, “D-serine transporter inhibitors as pharmaceutical compositions for the treatment of central nervous system disorders” (Allergan, Inc., priority 2011, dated 2014).

The subject of test [1] is pre-pulse inhibition. In words: pre-pulse inhibition (PPI) and startle response. It is filed as in vivo, rat. Particulars: D-serine 600 mg/kg, L-4OHPG 15 mg/kg; for effect on the absolute startle response: control experiment. On the procedure:
Pre-pulse inhibition was measured using the SR-Lab Startle Response system fitted with a rat enclosure. During the acclimation period, each rat (n=8/group) was habituated with a 5 min interval of 65-dB background noise followed by six 120 dB startle pulses alone, each 40 ms long. This acclimation phase was followed by a 15 min PPI test session where rats were presented with 120 dB startle pulses without a pre-pulse (“pulse alone”) or pulses preceded by a 20 ms pre-pulse of 3, 6, or 12 dB above background noise (“PP3”, “PP6”, or “PP12”, respectively) and ended with five 120 dB startle pulses. PPI was recorded for pre-pulse intensities of 3, 6, and 12 dB, and no stimulus. Each pre-pulse trial was administered in pseudorandom order. The 120 dB pulse alone trials were randomly interspersed within the pre-pulse trials and used for comparison with pre-pulse trials. PPI data were calculated as a percentage of PPI by comparing the pulse-alone versus the PP trials using the formula [100−(response to pre-pulse+120 dB)/(response to 120 dB alone)×100]. Experimenter was masked to treatment during testing and analysis.
Data were analyzed with a 2-way ANOVA with Condition and Treatment as factors with post hoc Bonferroni comparisons.

Test [2] concerns schizophrenic patients. Particulars: added on to traditional antipsychotic drugs; Labrie and Roder, 2010; cited from earlier work.
The test system of test [3] is rat hippocampal astrocytes. Put plainly: [3H]D-serine transport into primary cultures of rat hippocampal astrocytes. It is filed as cell-based. Particulars: Astrocyte; inhibition of [3H]D-serine transport, rat hippocampal astrocytes; means of at least two determinations.
Test [4] deals with T1, asc-1 (Rattus norvegicus, UniProt P63116).
T1 construct: from tissue; host or cells: rat forebrain P2 (synaptosome) fraction
T1 sequence (P63116 1-530): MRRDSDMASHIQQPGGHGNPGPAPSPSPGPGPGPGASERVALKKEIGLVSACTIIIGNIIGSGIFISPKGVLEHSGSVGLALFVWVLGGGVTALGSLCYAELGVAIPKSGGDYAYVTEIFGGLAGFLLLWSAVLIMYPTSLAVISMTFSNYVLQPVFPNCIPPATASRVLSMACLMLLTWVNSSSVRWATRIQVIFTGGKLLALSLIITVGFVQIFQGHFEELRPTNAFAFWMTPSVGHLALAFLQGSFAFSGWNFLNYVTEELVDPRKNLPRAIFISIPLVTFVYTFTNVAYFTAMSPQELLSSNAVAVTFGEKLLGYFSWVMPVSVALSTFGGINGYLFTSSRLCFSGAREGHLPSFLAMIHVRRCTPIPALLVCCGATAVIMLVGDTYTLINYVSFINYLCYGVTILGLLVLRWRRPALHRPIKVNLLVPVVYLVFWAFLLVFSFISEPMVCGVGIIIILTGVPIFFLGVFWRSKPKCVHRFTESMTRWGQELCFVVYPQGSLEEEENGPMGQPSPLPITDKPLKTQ
T1 sequence (Q794F9 1-527 partner): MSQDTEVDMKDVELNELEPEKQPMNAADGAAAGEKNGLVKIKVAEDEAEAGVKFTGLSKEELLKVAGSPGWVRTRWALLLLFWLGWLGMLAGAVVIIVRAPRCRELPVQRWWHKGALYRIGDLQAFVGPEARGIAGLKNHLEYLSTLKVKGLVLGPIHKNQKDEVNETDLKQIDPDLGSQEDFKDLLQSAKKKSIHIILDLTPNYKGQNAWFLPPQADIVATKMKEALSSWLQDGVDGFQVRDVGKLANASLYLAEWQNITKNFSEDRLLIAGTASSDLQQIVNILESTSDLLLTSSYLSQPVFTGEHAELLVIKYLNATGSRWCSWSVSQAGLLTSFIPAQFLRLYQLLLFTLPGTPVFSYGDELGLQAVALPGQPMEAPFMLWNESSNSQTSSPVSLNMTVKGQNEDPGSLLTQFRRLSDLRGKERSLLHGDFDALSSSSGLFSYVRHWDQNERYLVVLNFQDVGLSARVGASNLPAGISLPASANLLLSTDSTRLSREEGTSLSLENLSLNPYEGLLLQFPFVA
In words: sodium-independent [3H]D-serine transport into rat forebrain synaptosomes. The following applies: inhibition of [3H]D-serine transport, rat brain synaptosomes; means of at least two determinations. Format: biochemical. As for the experimental part:
Under the assay conditions used, the sodium-independent transport of D-serine by rodent forebrain synaptosomes is mediated by asc-1 (Rutter et al., 2007), and the sodium-dependent transport of D-serine into astrocytes in culture is mediated by an ASCT transporter, ASCT2 according to the literature (Ribeiro et al., 2002).
Synaptosome assays: a P2 fraction of rat forebrain was prepared and assayed immediately. Aliquots of the P2 preparation (approx. 1 mg of original tissue weight) were incubated in sodium-free assay buffer (CholineCl: 128 mM, KCl: 3.5 mM; KH2PO4: 1.5 mM; MgCl2: 1 mM; CaCl2: 1 mM; glucose: 10 mM; Tris-acetate buffer: 10 mM, pH7.4) containing [^3H]D-serine (final concentration of 50 nM) and test compounds in duplicate for 4 mins at room temperature. The synaptosomes containing radiolabel were collected by filtration onto Whatman GF/C filters, and washed twice with ice cold assay buffer. Filters were solubilized in scintillation fluid and radioactivity determined in a beta counter. IC50 values were determined as described for the cell-based assays above.

Structures are written as SMILES.

`N[C@H](CO)C(=O)O` [D-serine]: in test [1], the “effect on the absolute startle response” value is on record as “neither L-4OHPG nor D-serine had any significant effect”. In test [2], the “efficacy in clinical trials of schizophrenic patients” value is “has shown efficacy”. The IC50 – broadly, the concentration that inhibits the measured activity by half – was 1580 µM in test [3] and 9.4 µM in test [4].
Consider `N[C@H](C(=O)O)c1ccc(O)cc1` [L-4-hydroxyphenylglycine], for which the “effect on PPI” value in test [1] (PP3, PP6, PP12) was “reduced PPI, an effect that reached significance at the PP12 intensity level”. The “effect on the absolute startle response” value in test [1] is on record as “neither L-4OHPG nor D-serine had any significant effect”. The molecule further returned an IC50 in test [4] of 101 µM.
